The test system of the test is IL-17A-induced G-CSF production in human normal keratinocyte (NHK). The experiment in a line: NHK Assay: IL-17A-induced G-CSF production in human normal keratinocytes. It counts as cell-based. Particulars: adult normal human keratinocytes, IL-17A 5 ng/mL, 24 h, simple average if tested more than once. On the procedure:
IL-17A acts directly on keratinocytes through binding to dimeric receptor IL-17RA/RC and drives the production of a number of inflammatory mediators known to be elevated in psoriasis lesional tissue. IL-17A small molecule inhibitors that block the IL-17A to interact with IL-17R would inhibit the IL-17A signaling in its targeted cells such as keratinocytes. The compound functional activity is evaluated for its impact on IL-17A-induced G-CSF production in human normal keratinocyte (NHK).
Adult normal human keratinocytes are cultured in keratinocyte growth medium (Lonza) in a flask till reaching ˜ 90% confluence, then cells are transferred to a 384-well plate at density of 3000-4000 cell/well. Recombinant human IL-17A (Gibco PHC9174) is pre-incubated with titrated compound or DMSO for 1 h at rt then added to the cell culture plate. The final concentration of IL-17A is 5 ng/mL and DMSO is 0.2%, in the culture containing 5% FBS. Cells are cultured/treated for 24 h at 37° C. Supernatants are collected and G-CSF production is measured through HTRF technology using Human G-CSF Kit (CisBio). G-CSF concentration was extrapolated from the standard curve and IC50 is determined using GraphPad Prism. Cell viability is also evaluated using CellTiter-Glo kit (Promega) and effect of compound on cell viability is compared to DMSO control.

pIC50: −log10 of the molar value.

Regarding `CC(C)n1nccc1C(=O)N[C@H](c1cn2ncc(C(CC3CCC3)NC(=O)CC3CC(F)(F)C3)cc2n1)C1CCC(F)(F)CC1` (single isomer, unassigned) [Example 441, N—((S)-(7-((S*)-2-Cyclobutyl-1-(2-(3,3-difluorocyclobutyl)acetamido)ethyl)imidazo[1,2-b]pyridazin-2-yl)(4,4-difluorocyclohexyl)methyl)-1-isopropyl-1H-pyrazole-5-carboxamide], the pIC50 (in general, the IC50 on a negative log10 scale, so that one unit is a factor of ten) is 5.96.

In the case of `CC(C)n1nccc1C(=O)N[C@H](c1cn2ncc(C(NC(=O)CC3CC(F)(F)C3)C(C)(C)O)cc2n1)C1CCC(F)(F)CC1` (single isomer, unassigned) [Example 442, N—((S)-(7-((S*)-1-(2-(3,3-Difluorocyclobutyl)acetamido)-2-hydroxy-2-methylpropyl)imidazo[1,2-b]pyridazin-2-yl)(4,4-difluorocyclohexyl)methyl)-1-isopropyl-1H-pyrazole-5-carboxamide], the negative-log IC50 (pIC50) was 6.22.

Consider `CC(C)c1nnsc1C(=O)N[C@H](c1cn2ncc([C@H](NC(=O)CCC(F)(F)F)C3CC3)cc2n1)C1CCC(F)(F)CC1` [Example 481, N—[(S)-[7-[(R)-Cyclopropyl-(4,4,4-trifluorobutanamido)methyl]imidazo[1,2-b]pyridazin-2-yl]-(4,4-difluorocyclohexyl)methyl]-4-isopropyl-thiadiazole-5-carboxamide], for which the pIC50 (Homo sapiens, Keratinocyte) is 6.33. On to `O=C(CC1CC(F)(F)C1)NC(c1cnn2cc([C@@H](NC(=O)c3nonc3C3CC3)C3CCC(F)(F)CC3)nc2c1)C(F)F` (single isomer, unassigned) [Example 518, 4-Cyclopropyl-N—((S)-(7-((R*)-1-(2-(3,3-difluorocyclobutyl)acetamido)-2,2-difluoroethyl)imidazo[1,2-b]pyridazin-2-yl)(4,4-difluorocyclohexyl)methyl)-1,2,5-oxadiazole-3-carboxamide], for which the pIC50 was 5.54. Where the note is “Homo sapiens, Keratinocyte”, `CC(C)c1ncsc1C(=O)N[C@H](c1cn2ncc([C@H](NC(=O)CCC(F)(F)F)C3CC3)cc2n1)C1CCC(F)(F)CC1` [Example 464, N—((S)-(7-((R)-Cyclopropyl(4,4,4-trifluorobutanamido)methyl)imidazo[1,2-b]pyridazin-2-yl)(4,4-difluorocyclohexyl)methyl)-4-isopropylthiazole-5-carboxamide] had a pIC50 of 6.20. The molecule `CC(C)c1oncc1C(=O)N[C@H](c1cn2ncc([C@H](NC(=O)CCC(F)(F)F)C3CC3)cc2n1)C1CCC(F)(F)CC1` [Example 482, N—[(S)-[7-[(R)-Cyclopropyl-(4,4,4-trifluorobutanamido)methyl]imidazo[1,2-b]pyridazin-2-yl]-(4,4-difluorocyclohexyl)methyl]-5-isopropyl-isoxazole-4-carboxamide] gave a pIC50 of 7.12. Same read-out and setting: next, `CC(C)n1nccc1C(=O)N[C@H](c1cn2ncc(C(NC(=O)CC3CC(F)(F)C3)C(F)F)cc2n1)C1CCC(F)(F)CC1` (single isomer, unassigned) [Example 420, N—((S)-(7-((R*)-1-(2-(3,3-Difluorocyclobutyl)acetamido)-2,2-difluoroethyl)imidazo[1,2-b]pyridazin-2-yl)(4,4-difluorocyclohexyl)methyl)-1-isopropyl-1H-pyrazole-5-carboxamide]: 5.39.

Regarding `O=C(CCC(F)(F)F)N[C@@H](c1cnn2cc([C@@H](NC(=O)c3nonc3CN3CC(F)(F)C3)C3CCC(F)(F)CC3)nc2c1)C1CC1` [Example 387, N—((S)-(7-((R)-Cyclopropyl(4,4,4-trifluorobutanamido)methyl)imidazo[1,2-b]pyridazin-2-yl)(4,4-difluorocyclohexyl)methyl)-4-((3,3-difluoroazetidin-1-yl)methyl)-1,2,5-oxadiazole-3-carboxamide], the pIC50 (Homo sapiens, Keratinocyte) is 7.14.

Source of the values: US11702422B2, “Imidazopyridazines as modulators of IL-17” (Janssen Pharmaceutica NV, priority 2020, dated 2023).
